Measurements published in patent US7816088B2, “Identification, isolation and elimination of cancer stem cells” (The Board of Trustees of the Leland Stanford Junior …, priority 2003, dated 2010).
Entries after “also recorded” stand apart in the source; their conditions may differ. Structures can show the parent of a compound that is named as a salt.

Assays:
[1] = test system: CD34+Lin− stem and progenitor cells; test: FACS analysis of hematopoietic stem and progenitor profiles of CML patient samples before and after imatinib; assay type: in vivo, human
Description: Bone Marrow and Peripheral Blood Samples. Fresh human bone marrow was obtained with informed consent from healthy volunteers (AllCells, Berkeley, Calif.) as well as from allogeneic bone marrow donors (Department of Bone Marrow Transplantation, Stanford School of Medicine, Stanford, Calif.). Cytokine (G-CSF) mobilized peripheral blood samples were also obtained following apheresis from allogeneic donors.
Hematopoietic Stem Cell and Myeloid Progenitor Flow Cytometric Analysis and Cell Sorting. Mononuclear fractions were extracted following Ficoll density centrifugation according to standard methods and analyzed fresh or subsequent to rapid thawing of samples previously frozen in 90% FCS and 10% DMSO in liquid nitrogen. Prior to FACS analysis and sorting, hematopoietic stem cells (HSCs) were stained with lineage marker specific phycoerythrin (PE)-Cy5-conjugated antibodies including CD2 RPA-2.10; CD11b, ICRF44; CD20, 2H7; CD56, B159; GPA, GA-R2 (Becton Dickinson-PharMingen, San Diego), CD3, S4.1; CD4, S3.5; CD7, CD7-6B7; CD8, 3B5; CD10, 5-1B4, CD14, TUK4; CD19, SJ25-C1 (Caltag, South San Francisco, Calif.) and APC-conjugated anti-CD34, 84G12 (Becton Dickinson-Pharmingen), biotinylated anti-CD38, HIT2 (Caltag), FITC-conjugated anti-CD90 and PE conjugated anti-Flk2. […]
Myeloid progenitors were stained with the same lineage marker specific PE-Cy5-conjugated antibodies, APC-conjugated anti-CD34, 8G12 (Becton Dickinson-PharMingen) and biotinylated anti-CD38, HIT2 (Caltag) in addition to PE-conjugated anti-IL-3Rα, 9F5 (Becton Dickinson-ParMingen) and FITC-conjugated anti-CD45RA, MEM56 (Caltag) followed by staining with Streptavidin-Texas Red to visualize CD38-BIO stained cells and resuspension in propidium iodide to exclude dead cells. Unstained samples and isotype controls were included to assess background fluorescence. After staining, cells were analyzed and sorted using a modified FACS Vantage (Becton Dickinson Immunocytometry Systems, Mountain View, Calif.) equipped with a 599 nm dye laser and a 488 nm argon laser. […]

β-catenin = β-catenin FACS analysis of CML patient progenitors; assay type: in vivo, human; settings: CML patients pre versus post-imatinib
Description: β-catenin FACS Analysis. FACS-separated hematopoietic stem cells, common myeloid progenitors, granulocyte/macrophage progenitors, and megakaryocyte/erythroid progenitors were fixed with 0.8% paraformaldehyde and made permeable with 0.3% saponin. Cells were stained overnight with a fluorescein isothiocyanate (FITC)-conjugated antibody to β-catenin (Transduction Laboratories) or IgG1 isotype control-FITC antibody, washed, and analyzed by FACS.

Cc1ccc(NC(=O)c2ccc(CN3CCN(C)CC3)cc2)cc1Nc1nccc(-c2cccnc2)n1 [imatinib, imatinib mesylate]
number of CD34+Lin− cells ([1]; CML patients post-imatinib / responding to imatinib, bone marrow and peripheral blood): dramatic decline; also recorded: significant decrease
number of CD34+CD38− and CD34+CD38+ cells ([1]; imatinib responsive patients): decreased
proportion of individual myeloid progenitors ([1]; imatinib responsive patients): reverted to normal
β-catenin levels (MFI) in myeloid progenitors (β-catenin): normal
